The source of these data is US9896445B2, “Heterocyclic inhibitors of ERK1 and ERK2 and their use in the treatment of cancer” (Asana Biosciences, LLC, priority 2015, dated 2018).

One test concerns the target T1, ERK2 (Homo sapiens, UniProt P28482).
T1 construct: purchased Jubilant Biosys
Put plainly: ERK2 HTRF (biochemical) assay. As to the method:
(§1) ERK1 and ERK2 HTRF (Biochemical) Assays
These assays employed a homogeneous time resolved fluorescence (HTRF) technique. The compounds were serially diluted by half-log with concentrations ranging from 0.0005 to 10 uM in the assay buffer (50 mM Tris pH=7.5, 1 mM EGTA, 2 mM DTT, 10 mM MgCl2, 0.1% Tween-20) and 20 uL of substrate-ATP mix [1 uM Biotin-LC-Myelin Basic Protein (MBP) derivatized Peptide (Anaspec)-24 uM ATP (Sigma)] was added to each well of the assay plate. Then 10 uL of enzyme mix [25 nM ERK1 or ERK2 (Jubilant Biosys) in assay buffer] was added to each well. The plate was incubated at room temperature for 60 min with shaking. The HTRF mix [625 nM LANCE® Ultra Europium-anti-phospho-MBP (Perkin Elmer) and 2 nM Phycolink® Streptavidin-Allophycocyanin (SA-APC) (Prozyme) in HTRF buffer (50 mM Tris-HCl pH=7.5, 100 mM NaCl, 0.1% BSA, 0.05% Tween20, 0.5 mM EDTA)] was prepared and 75 uL of this mix was added to the HTRF plate. After incubation for 60 min at room temperature, 10 uL of the reaction mixture was transferred to the HTRF assay plate and incubated for 45 min at room temperature with shaking. Plate was read using Pherastar in HTRF mode (excitation 337 nm, emission 665 & 620 nm). The IC50 values (half maximal inhibitory concentration values) were subsequently determined using a sigmoidal dose-response curve (variable slope) in GraphPad Prism® 5 software.

The target in the next test is T2, ERK1 (Homo sapiens, UniProt P27361).
T2 construct: purchased Jubilant Biosys
Put plainly: ERK1 HTRF (biochemical) assay. As to the method:
as §1
These assays employed a homogeneous time resolved fluorescence (HTRF) technique. […] The plate was incubated at room temperature for 60 min with shaking. […] The IC50 values (half maximal inhibitory concentration values) were subsequently determined using a sigmoidal dose-response curve (variable slope) in GraphPad Prism® 5 software.
A general note: Time-resolved FRET reads energy transfer from a long-lived donor to a nearby acceptor.

T2 sequence (P27361 whole entry): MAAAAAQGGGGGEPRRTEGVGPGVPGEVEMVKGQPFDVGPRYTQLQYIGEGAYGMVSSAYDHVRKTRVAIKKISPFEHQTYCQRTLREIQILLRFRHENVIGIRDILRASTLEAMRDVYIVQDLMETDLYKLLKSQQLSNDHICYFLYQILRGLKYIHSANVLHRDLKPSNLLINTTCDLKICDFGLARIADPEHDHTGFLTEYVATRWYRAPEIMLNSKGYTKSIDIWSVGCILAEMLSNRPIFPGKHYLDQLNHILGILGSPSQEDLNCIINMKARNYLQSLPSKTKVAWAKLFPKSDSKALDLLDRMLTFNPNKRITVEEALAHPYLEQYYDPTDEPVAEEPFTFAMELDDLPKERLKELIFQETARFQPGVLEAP
T1 sequence (P28482 whole entry): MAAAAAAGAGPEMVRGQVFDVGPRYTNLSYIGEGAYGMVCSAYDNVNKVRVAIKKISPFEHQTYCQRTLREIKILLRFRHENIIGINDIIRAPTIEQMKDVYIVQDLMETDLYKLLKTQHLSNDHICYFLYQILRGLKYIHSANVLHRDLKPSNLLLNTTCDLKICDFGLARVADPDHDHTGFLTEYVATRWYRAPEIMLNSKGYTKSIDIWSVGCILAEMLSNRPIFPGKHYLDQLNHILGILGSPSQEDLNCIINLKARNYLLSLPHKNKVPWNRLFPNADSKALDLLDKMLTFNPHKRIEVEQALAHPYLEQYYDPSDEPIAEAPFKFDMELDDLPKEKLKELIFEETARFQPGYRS

For `Cc1cnc(Nc2cccnc2)nc1-n1cc(NC(=O)N[C@H](CO)c2cccc(Cl)c2)cn1` [Compound 23, (S)-1-(1-(3-chlorophenyl)-2-hydroxyethyl)-3-(1-(5-methyl-2-(pyridin-3-yl-amino)pyrimidin-4-yl)-1H-pyrazol-4-yl)urea], the concentration for half-maximal inhibition (IC50) is at most 50 nM on ERK2 (HTRF) and below 50 nM on ERK1 (HTRF).

As for `Cc1cnc(NC2CC2)nc1-n1ccc(C(=O)NC(CO)c2cccc(Cl)c2)c1` (stereo not shown) [Compound 115, N-(1-(3-chloro-phenyl)-2-hydroxy-ethyl)-1-(2-(cyclopropylamino)-5-methylpyrimidin-4-yl)-1H-pyrrole-3-carboxamide], the results for the IC50 against ERK2 (HTRF) and on ERK1 (HTRF) were at most 50 nM and below 50 nM, respectively.

In the case of `O=C(N[C@H](CO)c1cccc(Cl)c1)c1cn(-c2ccnc(NC3CC3)c2)cn1` [Compound 116, (S)-N-(1-(3-chlorophenyl)-2-hydroxyethyl)-1-(2-(cyclopropylamino)pyridin-4-yl)-1H-imidazole-4-carboxamide], the IC50 against ERK2 (HTRF) was at most 50 nM; against ERK1 (HTRF), below 50 nM.

Regarding `Cc1cnc(NC2CCOCC2)nc1-n1cnc(C(=O)NCc2nc(Cl)sc2C)c1` [Example 328, N-((2-chloro-5-methylthiazol-4-yl)methyl)-1-(5-methyl-2-((tetrahydro-2H-pyran-4-yl)amino)-pyrimidin-4-yl)-1H-imidazole-4-carboxamide], the IC50 at ERK2 (HTRF biochemical assay) is at most 50 nM; against ERK1 (HTRF biochemical assay), below 50 nM.

Turning to `Cc1cnc(NC2CC(F)(F)C2)nc1-n1cnc(C(=O)N[C@@H](CN)c2cc(F)cc(Cl)c2)c1` [Example 289, (R)-N-(2-amino-1-(3-chloro-5-fluoro-phenyl)ethyl)-1-(2-((3,3-difluoro-cyclobutyl)amino)-5-methylpyrimidin-4-yl)-1H-imidazole-4-carboxamide], the IC50 against ERK2 (HTRF) fell in the range of 50 to 100 nM; against ERK1 (HTRF), 100 to 500 nM.

Consider `Cc1cnc(NC2CCOCC2)nc1-n1cnc(C(=O)NC(C)(C)c2cccc(Cl)c2CO)c1` [Example 341, N-(2-(3-chloro-2-(hydroxymethyl)-phenyl)propan-2-yl)-1-(5-methyl-2-((tetrahydro-2H-pyran-4-yl)amino)-pyrimidin-4-yl)-1H-imidazole-4-carboxamide], for which the IC50 is at most 50 nM against ERK2 (HTRF biochemical assay) and below 50 nM against ERK1 (HTRF biochemical assay).

`Cc1cnc(Nc2ccc3c(c2)OCO3)nc1-n1cc(NC(=O)NC(CO)c2cccc(Cl)c2)cn1` (stereo not shown) [Compound 37, 1-(1-(2-(benzo[d][1,3]dioxol-5-ylamino)-5-methylpyrimidin-4-yl)-1H-pyrazol-4-yl)-3-(1-(3-chlorophenyl)-2-hydroxyethyl)urea]: the figures for the IC50 at ERK2 (HTRF) and against ERK1 (HTRF) were at most 50 nM and 100 to 500 nM, respectively.

`CC[C@H](CO)Nc1ncc(C)c(-n2ccc(C(=O)NC(CO)c3cccc(Cl)c3)c2)n1` (stereo partly drawn) [Compound 167, N-(1-(3-chloro-phenyl)-2-hydroxy-ethyl)-1-(2-(((R)-1-hydroxybutan-2-yl)amino)-5-methylpyrimidin-4-yl)-1H-pyrrole-3-carboxamide]: the IC50 is at most 50 nM on ERK2 (HTRF) and below 50 nM against ERK1 (HTRF).

Turning to `Cc1cnc(Nc2ccc(F)cc2Cl)nc1-n1cnc(C(=O)N[C@H](CO)c2cccc(Cl)c2)c1` [Compound 241, (S)-1-(2-((2-chloro-4-fluorophenyl)-amino)-5-methyl-pyrimidin-4-yl)-N-(1-(3-chlorophenyl)-2-hydroxyethyl)-1H-imidazole-4-carboxamide], the IC50 is at most 50 nM against ERK2 (HTRF) and below 50 nM against ERK1 (HTRF).

For `Cc1cnc(NC2CCOCC2)nc1-n1cnc(C(=O)NCc2cccc(Cl)c2CCO)c1` [Example 334, N-(3-chloro-2-hydroxyethylbenzyl)-1-(5-methyl-2-((tetrahydro-2H-pyran-4-yl)amino)-pyrimidin-4-yl)-1H-imidazole-4-carboxamide], the IC50 is at most 50 nM at ERK2 (HTRF biochemical assay) and below 50 nM against ERK1 (HTRF biochemical assay).

`Cc1cnc(Nc2ccc(F)cc2)nc1-n1ccc(C(=O)N[C@H](CO)c2ccc(F)c(Cl)c2)c1` [Compound 125, (S)-N-(1-(3-chloro-4-fluorophenyl)-2-hydroxyethyl)-1-(2-((4-fluorophenyl)-amino)-5-methyl-pyrimidin-4-yl)-1H-pyrrole-3-carboxamide]: the half-inhibitory concentration (IC50) is at most 50 nM against ERK2 (HTRF) and below 50 nM against ERK1 (HTRF).

Usually IC50 stands for the concentration that gives 50% inhibition. Lower therefore signals greater potency in that assay.
